Results published in patent publication EP0568635B1, “IMPROVED GLYPHOSATE FORMULATIONS” (MONSANTO COMPANY, priority 1991, dated 1992).

System: Johnsongrass
Assay: Greenhouse bioassay test of herbicidal activity, pot-grown weeds sprayed with a track sprayer
Type: in vivo
Conditions: mean of four rates (1/4, 1/2, 3/4 and 1 pound glyphosate/acre; 0.28, 0.56, 0.84 and 1.12 kg/ha), 4 weeks after treatment, 0.25 % ethoxylated amine surfactant in all spray solutions
Experimental: The results of the bioassay test of the Example 2 formulation are shown below. Roundup herbicide was used as a comparative of the prior art.
In all of the greenhouse bioassay tests provided in this specification, pot-grown weed species were sprayed with aqueous solutions of the glyphosate WSP formulations using a track sprayer calibrated to apply about 20 gallons/acre (187 liters/hectare) at about 30 psi ([…]).
WSP formulations were prepared without Witconate surfactant. The surfactant was tank mixed into the spray solutions for bioassays.

In the case of `CC(C)N.O=C(O)CNCP(=O)(O)O` [Isopropylamine salt of glyphosate], the “% INHIBITION” value is reported as 55.2%.
